In assay [1] the target is JH2 domain of human Tyk2 (Homo sapiens (Human), UniProt P29597). Nature of the assay: JH2 Biochemical Assay (TR-FRET probe displacement). In kind it is binding. As to conditions: TR-FRET probe displacement, JH2 domain of human Tyk2. (TR-FRET usually uses a lanthanide donor and a delayed reading to cut background.)
In assay [2] the target is Tyk2 (Homo sapiens (Human), UniProt P29597). Nature of the assay: pSTAT4 Cell Assay (MSD, NK92 cells). The assay is classed as cell-based. As to conditions: MSD.
Sequence of Tyk2 (P29597 whole entry): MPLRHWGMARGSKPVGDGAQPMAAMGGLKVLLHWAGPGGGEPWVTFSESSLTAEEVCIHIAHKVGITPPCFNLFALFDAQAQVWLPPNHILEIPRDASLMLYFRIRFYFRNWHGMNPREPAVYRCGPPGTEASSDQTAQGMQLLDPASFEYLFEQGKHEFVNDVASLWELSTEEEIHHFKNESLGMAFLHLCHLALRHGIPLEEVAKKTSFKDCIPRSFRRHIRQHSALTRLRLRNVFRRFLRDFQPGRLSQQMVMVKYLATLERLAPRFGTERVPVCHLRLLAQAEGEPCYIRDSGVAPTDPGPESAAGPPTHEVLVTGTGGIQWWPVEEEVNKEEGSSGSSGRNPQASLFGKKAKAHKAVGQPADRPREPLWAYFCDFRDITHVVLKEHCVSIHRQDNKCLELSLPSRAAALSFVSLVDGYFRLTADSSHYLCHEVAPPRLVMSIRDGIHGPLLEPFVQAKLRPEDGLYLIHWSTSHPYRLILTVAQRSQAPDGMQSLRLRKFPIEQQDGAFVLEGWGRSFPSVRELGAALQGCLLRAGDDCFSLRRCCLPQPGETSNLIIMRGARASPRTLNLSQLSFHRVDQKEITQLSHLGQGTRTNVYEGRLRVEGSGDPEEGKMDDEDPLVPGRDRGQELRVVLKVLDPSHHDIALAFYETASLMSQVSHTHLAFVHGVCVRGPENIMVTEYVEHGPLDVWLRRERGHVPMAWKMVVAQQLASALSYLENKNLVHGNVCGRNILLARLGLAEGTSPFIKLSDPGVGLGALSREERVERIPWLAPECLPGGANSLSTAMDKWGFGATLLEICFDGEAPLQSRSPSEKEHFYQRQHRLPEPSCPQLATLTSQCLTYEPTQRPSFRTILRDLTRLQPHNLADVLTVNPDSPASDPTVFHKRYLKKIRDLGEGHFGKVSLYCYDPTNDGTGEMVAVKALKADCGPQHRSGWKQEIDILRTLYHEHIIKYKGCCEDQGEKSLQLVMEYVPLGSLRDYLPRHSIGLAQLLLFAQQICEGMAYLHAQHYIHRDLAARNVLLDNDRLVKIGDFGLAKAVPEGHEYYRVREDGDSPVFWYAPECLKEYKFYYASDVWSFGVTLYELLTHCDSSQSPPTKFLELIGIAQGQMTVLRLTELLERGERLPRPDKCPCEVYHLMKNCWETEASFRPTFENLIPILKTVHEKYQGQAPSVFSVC

Where a name gives a salt, the structure may show the parent alone. Bounds are passed on as bounds.

Sequence of JH2 domain of human Tyk2 (P29597 575-876): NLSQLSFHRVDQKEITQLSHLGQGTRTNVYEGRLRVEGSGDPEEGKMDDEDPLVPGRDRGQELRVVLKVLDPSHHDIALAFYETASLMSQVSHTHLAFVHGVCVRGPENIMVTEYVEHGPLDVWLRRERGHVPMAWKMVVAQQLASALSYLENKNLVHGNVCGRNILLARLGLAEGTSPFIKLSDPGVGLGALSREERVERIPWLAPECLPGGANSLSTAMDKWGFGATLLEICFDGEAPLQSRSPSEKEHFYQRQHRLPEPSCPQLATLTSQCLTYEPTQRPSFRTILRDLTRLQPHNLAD

Take `CCOc1cnc(NC(C)=O)cc1Nc1cc(OC2CC(C)(O)C2)nc(C(C)(F)F)n1` (centres unmarked) [Example 53, N-(4-((2-(1,1-difluoroethyl)-6-(3-hydroxy-3-methylcyclobutoxy)pyrimidin-4-yl)amino)-5-ethoxypyridin-2-yl)acetamide]: the concentration for half-maximal inhibition (IC50) is no more than 10 nM in assay [1] and 10 to 100 nM in assay [2].
On the same counts, the results for `C=Cc1cc(Nc2cc(NC(C)=O)ncc2OCCOC)nc(C(C)(F)F)n1` [Example 55, N-(4-((2-(1,1-difluoroethyl)-6-vinylpyrimidin-4-yl)amino)-5-(2-methoxyethoxy)pyridin-2-yl)acetamide] are no more than 10 nM and no more than 10 nM.
For `COCCOc1cnc(NC(C)=O)cc1Nc1cccc(C(C)(F)F)n1` [Example 56, N-(4-((6-(1,1-difluoroethyl)pyridin-2-yl)amino)-5-(2-methoxyethoxy)pyridin-2-yl)acetamide] the same measures were no more than 10 nM and no more than 10 nM.
For the compound `CC(=O)Nc1cc(Nc2cc(C)nc(C(C)(F)F)n2)c(OCC2(C(F)(F)F)CC2)cn1` [Example 57, N-(4-((2-(1,1-difluoroethyl)-6-methylpyrimidin-4-yl)amino)-5-((1-(trifluoromethyl)cyclopropyl)methoxy)pyridin-2-yl)acetamide], the IC50 in assay [1] is no more than 10 nM; in assay [2], 10 to 100 nM.
For `COCC(C)Oc1cnc(NC(C)=O)cc1Nc1cc(C)nc(C(C)(F)F)n1` (centres unmarked) [Example 59, N-(4-((2-(1,1-difluoroethyl)-6-methylpyrimidin-4-yl)amino)-5-((1-methoxypropan-2-yl)oxy)pyridin-2-yl)acetamide] the same measures were no more than 10 nM and 100 to 1000 nM.
For `COC(C)COc1cnc(NC(C)=O)cc1Nc1cc(C)nc(C(C)(F)F)n1` (centres unmarked) [Example 60, N-(4-((2-(1,1-difluoroethyl)-6-methylpyrimidin-4-yl)amino)-5-(2-methoxypropoxy)pyridin-2-yl)acetamide] the same measures were no more than 10 nM and 10 to 100 nM.
Take `CC(=O)Nc1cc(Nc2cc(C)nc(C(C)(F)F)n2)c(OCC2COC2)cn1` [Example 61, N-(4-((2-(1,1-difluoroethyl)-6-methylpyrimidin-4-yl)amino)-5-(oxetan-3-ylmethoxy)pyridin-2-yl)acetamide]: the IC50 in assay [1] was no more than 10 nM; in assay [2] it was 10 to 100 nM.
For `CC(=O)Nc1cc(Nc2cc(C)nc(C(C)(F)F)n2)c(OCC2CCC2)cn1` [Example 62, N-(5-(cyclobutylmethoxy)-4-((2-(1,1-difluoroethyl)-6-methylpyrimidin-4-yl)amino)pyridin-2-yl)acetamide] the same measures were no more than 10 nM and 10 to 100 nM.
Consider `COCCOc1cnc(NC(C)=O)cc1Nc1cc(C)cc(C(C)(F)F)n1` [Example 63, N-(4-((6-(1,1-difluoroethyl)-4-methylpyridin-2-yl)amino)-5-(2-methoxyethoxy)pyridin-2-y1)acetamide], for which the IC50 in assay [1] and in assay [2] was no more than 10 nM each time.
Turning to `CC(=O)Nc1cc(Nc2cccc(C(C)(F)F)n2)c(OCCN2CCCC2)cn1` [Example 64, N-(4-((6-(1,1-difluoroethyl)pyridin-2-yl)amino)-5-(2-(pyrrolidin-1-yl)ethoxy)pyridin-2-yl)acetamide], the IC50 in assay [1] was no more than 10 nM; in assay [2], 10 to 100 nM.
For `CCc1cc(Nc2cc(NC(C)=O)ncc2OCCOC(F)F)nc(C(C)(F)F)n1` [Example 68, N-(4-((2-(1,1-difluoroethyl)-6-ethylpyrimidin-4-yl)amino)-5-(2-(difluoromethoxy)ethoxy)pyridin-2-yl)acetamide] the same measures were no more than 10 nM and no more than 10 nM.
For the compound `CCc1cc(Nc2cc(NC(C)=O)ncc2OCCN2CCOCC2)nc(C(C)(F)F)n1` [Example 70, N-(4-((2-(1,1-difluoroethyl)-6-ethylpyrimidin-4-yl)amino)-5-(2-morpholinoethoxy)pyridin-2-yl)acetamide], the half-inhibitory concentration (IC50) in assay [1] and in assay [2] was no more than 10 nM throughout.
`CCc1cc(Nc2cc(NC(C)=O)ncc2OCCN2CCN(C)CC2)nc(C(C)(F)F)n1` [Example 71, N-(4-((2-(1,1-difluoroethyl)-6-ethylpyrimidin-4-yl)amino)-5-(2-(4-methylpiperazin-1-yl)ethoxy)pyridin-2-yl)acetamide]: the 50% inhibitory concentration (IC50) in assay [1] and in assay [2] was no more than 10 nM in each case.
With `COCCOc1cnc(NC(C)=O)cc1Nc1cccc(C2CCOC2)n1` (centres unmarked) [Example 72, N-(5-(2-methoxyethoxy)-4-((6-(tetrahydrofuran-3-yl)pyridin-2-yl)amino)pyridin-2-yl)acetamide], the figures for the IC50 in assay [1] and in assay [2] were no more than 10 nM and 100 to 1000 nM, respectively.
Consider `CC(=O)Nc1cc(Nc2cc(C)nc(C(C)(F)F)n2)c(OCC2CC2(F)F)cn1` (centres unmarked) [Example 74, N-(5-((2,2-difluorocyclopropyl)methoxy)-4-((2-(1,1-difluoroethyl)-6-methylpyrimidin-4-yl)amino)pyridin-2-yl)acetamide], for which the results for the half-inhibitory concentration (IC50) in assay [1] and in assay [2] were no more than 10 nM and 10 to 100 nM, respectively.
As for `COCCOc1cnc(NC(C)=O)cc1Nc1nccc(C(C)(F)F)n1` [Example 75, N-(4-((4-(1,1-difluoroethyl)pyrimidin-2-yl)amino)-5-(2-methoxyethoxy)pyridin-2-yl)acetamide], the IC50 in assay [1] was no more than 10 nM; in assay [2] it was 100 to 1000 nM.
On the same counts, the results for `COCCOc1cnc(NC(C)=O)cc1Nc1nc(C)cc(C(C)(F)F)n1` [Example 78] are no more than 10 nM and 10 to 100 nM.
Regarding `COCCOc1cnc(NC(C)=O)cc1Nc1cc(C)nc(C(F)CF)n1` (centres unmarked) [Example 79, N-(4-((2-(1,2-difluoroethyl)-6-methylpyrimidin-4-yl)amino)-5-(2-methoxyethoxy)pyridin-2-yl)acetamide], the IC50 is no more than 10 nM in assay [1] and 10 to 100 nM in assay [2].
For `COCCOc1cnc(NC(C)=O)cc1Nc1nc(C)cc(C(F)CF)n1` (centres unmarked) [Example 80, N-(4-((4-(1,2-difluoroethyl)-6-methylpyrimidin-2-yl)amino)-5-(2-methoxyethoxy)pyridin-2-yl)acetamide] the same measures were 10 to 100 nM and 100 to 1000 nM.
`COCCOc1cnc(NC(C)=O)cc1Nc1cc(C)nc(C(C)(F)CF)n1` (centres unmarked) [Example 81, N-(4-((2-(1,2-difluoropropan-2-y1)-6-methylpyrimidin-4-yl)amino)-5-(2-methoxyethoxy)pyridin-2-yl)acetamide]: the results for the IC50 in assay [1] and in assay [2] were no more than 10 nM and 10 to 100 nM, respectively.
On the same counts, the results for `COCCOc1cnc(NC(C)=O)cc1Nc1cc(C)nc(C(C)CF)n1` (centres unmarked) [Example 82, N-(4-((2-(1-fluoropropan-2-yl)-6-methylpyrimidin-4-yl)amino)-5-(2-methoxyethoxy)pyridin-2-yl)acetamide] are no more than 10 nM and 10 to 100 nM.
With `CC(=O)Nc1cc(Nc2cc(C)nc(C(C)(F)F)n2)c(OC(C)C2CC2)cn1` (centres unmarked) [Example 83, N-(5-(1-cyclopropylethoxy)-4-((2-(1,1-difluoroethyl)-6-methylpyrimidin-4-yl)amino)pyridin-2-yl)acetamide], the concentration for half-maximal inhibition (IC50) was no more than 10 nM in assay [1] and 100 to 1000 nM in assay [2].
On to `CC(=O)Nc1cc(Nc2cc(C)nc(C(C)(F)F)n2)c(OCC2(C#N)CC2)cn1` [Example 84, N-(5-((1-cyanocyclopropyl)methoxy)-4-((2-(1,1-difluoroethyl)-6-methylpyrimidin-4-yl)amino)pyridin-2-yl)acetamide], for which the IC50 in assay [1] is no more than 10 nM; in assay [2], 10 to 100 nM.
For `CC(=O)Nc1cc(Nc2cc(C)nc(C(C)(F)F)n2)c(OCC2CCO2)cn1` (centres unmarked) [Example 85, N-(4-((2-(1,1-difluoroethyl)-6-methylpyrimidin-4-yl)amino)-5-(oxetan-2-ylmethoxy)pyridin-2-yl)acetamide] the same measures were no more than 10 nM and 10 to 100 nM.
For `CC(=O)Nc1cc(Nc2cc(C)nc(C(C)(F)F)n2)c(OC2COC2)cn1` [Example 86, N-(4-((2-(1,1-difluoroethyl)-6-methylpyrimidin-4-yl)amino)-5-(oxetan-3-yloxy)pyridin-2-yl)acetamide], the IC50 in assay [1] is no more than 10 nM; in assay [2] it was 10 to 100 nM.
On the same counts, the results for `COCCOc1cnc(NC(C)=O)cc1Nc1cncc(C(F)CF)n1` (centres unmarked) [Example 89, N-(4-((6-(1,2-difluoroethyl)pyrazin-2-yl)amino)-5-(2-methoxyethoxy)pyridin-2-yl)acetamide] are 10 to 100 nM and 10 to 100 nM.
On the same counts, the results for `C=C(F)c1cncc(Nc2cc(NC(C)=O)ncc2OCCOC)n1` [Example 90, N-(4-((6-(1-fluorovinyl)pyrazin-2-yl)amino)-5-(2-methoxyethoxy)pyridin-2-yl)acetamide] are no more than 10 nM and 100 to 1000 nM.
For `CCc1cc(Nc2cc(NC(=O)OC)ncc2OCCN(C)C)nc(C(C)(F)F)n1` [Example 92, methyl (4-((2-(1,1-difluoroethyl)-6-ethylpyrimidin-4-yl)amino)-5-(2-(dimethylamino)ethoxy)pyridin-2-yl)carbamate] the same measures were no more than 10 nM and 10 to 100 nM.
Consider `CC(=O)Nc1cc(Nc2cc(OC3CC3)nc(C(C)(F)F)n2)c(OC(F)(F)F)cn1` [Example 93, N-(4-((6-cyclopropoxy-2-(1,1-difluoroethyl)pyrimidin-4-yl)amino)-5-(trifluoromethoxy)pyridin-2-yl)acetamide], for which the IC50 in assay [1] is no more than 10 nM; in assay [2], 100 to 1000 nM.
On the same counts, the results for `CCOc1cnc(NC(C)=O)cc1Nc1cc(F)nc(C(C)(F)F)n1` [Example 94, N-(4-((2-(1,1-difluoroethyl)-6-fluoropyrimidin-4-yl)amino)-5-ethoxypyridin-2-yl)acetamide trifluoroacetate] are no more than 10 nM and 10 to 100 nM.
For `CCOc1cnc(NC(C)=O)cc1Nc1cc(C)cc(C23COC(C2)C3)n1` [Example 95, N-(4-((6-(2-oxabicyclo[2.1.1]hexan-4-yl)-4-methylpyridin-2-yl)amino)-5-ethoxypyridin-2-yl)acetamide], the concentration for half-maximal inhibition (IC50) was 10 to 100 nM in assay [1] and 100 to 1000 nM in assay [2].

As usually defined, the IC50 is the concentration that inhibits the measured activity by half. A high value points to weaker potency in that assay.

Values taken from patent US20260028365A1 (BIOGEN MA INC., priority 2022, published 2026).
